# Data: patent US4808588A, “Heterocyclic ureas and carbonates useful as pharmaceuticals” (Beecham Group, p.l.c., priority 1986, dated 1989)
# System: von Bezold-Jarisch reflex evoked by 5-HT
# Test: Antagonism of the von Bezold-Jarisch reflex evoked by 5-HT in the anaesthetised rat
# Assay type: in vivo
# Conditions: anaesthetised male rats, compound intravenous, 5-HT usually 6 μg/kg i.v., heart rate changes, read-out: ED50 (concentration required to reduce the 5-HT-evoked response to 50% of the control response)
# Protocol: Antagonism of the von Bezold-Jarisch reflex
# The compounds were evaluated for antagonism of the von Bezold-Jarisch reflex evoked by 5-HT in the anaesthetised rat according to the following method:
# Male rats 250-350 g, were anaesthetised with urethane (1.25 g/kg intraperitoneally) and blood pressure and heart rate recorded as described by Fozard J. R. et al., J. Cardiovasc. Pharmacol. 2, 229-245 (1980). A submaximal dose of 5-HT (usually 6 μg/kg) was given repeatedly by the intravenous route and changes in heart rate quantified. Compounds were given intravenously and the concentration required to reduce the 5-HT-evoked response to 50% of the control response (ED50) was then determined.
row,SMILES,ED50 [µg/kg]
1,"COc1cscc1NC(=O)N[C@H]1C[C@H]2CC[C@@H](C1)N2C [Compound 5, (endo)-N-(8-Methyl-8-azabicyclo[3,2,1]oct-3-yl)-N'-(4-methoxythiophen-3-yl)urea]",2
2,"COc1ccsc1NC(=O)N[C@H]1C[C@H]2CC[C@@H](C1)N2C [Compound 3, (endo)-N-(8-Methyl-8-azabicyclo[3,2,1]oct-3-yl)-N'-(3-methoxythiophen-2-yl)urea]",1
3,"COc1ncccc1NC(=O)N[C@H]1C[C@H]2CC[C@@H](C1)N2C [Compound 1, (endo)-N-(8-Methyl-8-azabicyclo[3.2.1]oct-3-yl)-N'-(2-methoxy-pyrid-3-yl)urea]",7.5
